Read-outs that look alike come from different tables or passages of the source.
How the values were obtained:
[1] = test system: HT-29 (colorectal adenocarcinoma); assay: Cell growth assay (Trypan blue), HT-29 cells; format: cell-based, human; settings: Homo sapiens, HT-29, pure enantiomers, 72 h
Protocol: (§1) A2780 (human ovarian carcinoma) and HT-29 (human colorectal adenocarcinoma) were grown in RPMI 1640 (Sigma Chemical Co., St. Louis, MO, USA), and MSTO-211H (human biphasic mesothelioma) were grown in RPMI 1640 (Sigma Chemical Co.) supplemented with 2.38 g/L Hepes, 0.11 g/L pyruvate sodium, and 2.5 g/L glucose. Then, 1.5 g/L NaHCO3, 10% heat-inactivated fetal calf serum (Biowest), 100 U/mL penicillin, 100 μg/mL streptomycin, and 0.25 μg/mL amphotericin B (Sigma Chemical Co.) were added to the media. The cells were cultured at 37 °C in a moist atmosphere of 5% carbon dioxide in air. Cells (2.5–3 × 10^4) were seeded into each well of a 24-well cell culture plate. After incubation for 24 h, various concentrations of the test agents were added to the complete medium and incubated for a further 72 h. A Trypan blue assay was performed to determine cell viability. Cytotoxicity data were expressed as IC50 values, i.e., the concentration of the test compound able to induce a 50% reduction in cell number compared with control cultures.

[2] = test system: A2780 (ovarian carcinoma); assay: Cell growth assay (Trypan blue), A2780 cells; format: cell-based, human
Protocol: as §1

[3] = test system: MSTO-211H (biphasic mesothelioma); assay: Cell growth assay (Trypan blue), MSTO-211H cells; format: cell-based, human; settings: pure enantiomers
Protocol: as §1

A2780 cells [4] = assay: Cell cycle analysis (propidium iodide, flow cytometry); format: cell-based, human; settings: 28 h, mean ± SD of four experiments
Protocol: A2780 cells ([…]) were seeded into a 6-well culture plate in complete medium. After incubation for 24 h, the test compound was added at the indicated concentration and cells were incubated for a further 28 h. After treatment, cells were harvested, centrifugated, and 300–500 × 10^3 cells were fixed and permeabilized with 70% ice-cold ethanol at 4 °C for 20 min. The cells were washed twice with PBS and incubated in a staining solution containing 0.1 mg/mL RNAse and 36 μg/mL propidium iodide for 20 min at room temperature. The DNA content analysis was performed using a FACSCanto II flow cytometer (Becton-Dickinson, Mountain View, CA, USA).

A2780 cells [5] = assay: Measurement of reactive oxygen species (H2DCF-DA); format: cell-based, human; settings: 50 μM, 120 min of incubation
Protocol: The intracellular production of ROS was determined by using the cell-permeable fluorogenic probe 2′,7′-dichlorodihydrofluorescein diacetate (H2DCF-DA). A2780 cells (10^4) were seeded in 96-well plates and incubated for 24 h. The medium was then removed, and the cells washed with PBS and incubated with 10 μM H2DCF-DA in the dark for 20 min at 37 °C and 5% carbon dioxide in air. Afterwards, the medium was removed, cells washed with PBS, and PBS/10 mM glucose containing the test compound was added. ROS production was estimated by monitoring the fluorescence increase of the probe (λex = 480, λem = 530) using a PerkinElmer VICTOR X3 plate reader.

[6] = test system: supercoiled plasmid pBR322 DNA; assay: Unwinding assay, electrophoretic mobility of supercoiled DNA; settings: 3 h at 37 °C
Protocol: Figure 2SI. Effect of compound (R)-5a on the electrophoretic mobility of supercoiled DNA.
Supercoiled plasmid pBR322 DNA was incubated in the absence or in the presence of (R)-5a at indicated concentrations. The effect of solvent alone on DNA was also assayed (solvent).
Supercoiled pBR322 plasmid DNA (0.15 µg, Fermentas Life Sciences) was incubated in TAE buffer (0.04 M Tris, 0.02 M Acetic Acid, EDTA 1 mM, pH=8) with test compound at indicated concentrations for 3 h at 37 °C in 10 μL final volume. 3 μL of loading buffer (0.125% bromophenol blue, 0.125% xylene cyanol and 50% glycerol) was added to each sample and DNA was separated by electrophoresis on a 0.8% agarose gel at room temperature. The gels were stained with ethidium bromide (1 μg/mL) in TAE buffer, transilluminated by UV light, and the fluorescence emission was visualized by a CCD camera coupled to a Bio-Rad Gel Doc XR apparatus.
(§2) (1 picture or pasted object on this page, not shown here)

human topoisomerase I = target: T1, human topoisomerase I (Homo sapiens, UniProt P11387); assay: Topoisomerase I relaxation assay; format: biochemical; settings: supercoiled pBR322; 60 min at 37 °C
T1 construct: purchased TopoGEN
T1 sequence (P11387 1-765): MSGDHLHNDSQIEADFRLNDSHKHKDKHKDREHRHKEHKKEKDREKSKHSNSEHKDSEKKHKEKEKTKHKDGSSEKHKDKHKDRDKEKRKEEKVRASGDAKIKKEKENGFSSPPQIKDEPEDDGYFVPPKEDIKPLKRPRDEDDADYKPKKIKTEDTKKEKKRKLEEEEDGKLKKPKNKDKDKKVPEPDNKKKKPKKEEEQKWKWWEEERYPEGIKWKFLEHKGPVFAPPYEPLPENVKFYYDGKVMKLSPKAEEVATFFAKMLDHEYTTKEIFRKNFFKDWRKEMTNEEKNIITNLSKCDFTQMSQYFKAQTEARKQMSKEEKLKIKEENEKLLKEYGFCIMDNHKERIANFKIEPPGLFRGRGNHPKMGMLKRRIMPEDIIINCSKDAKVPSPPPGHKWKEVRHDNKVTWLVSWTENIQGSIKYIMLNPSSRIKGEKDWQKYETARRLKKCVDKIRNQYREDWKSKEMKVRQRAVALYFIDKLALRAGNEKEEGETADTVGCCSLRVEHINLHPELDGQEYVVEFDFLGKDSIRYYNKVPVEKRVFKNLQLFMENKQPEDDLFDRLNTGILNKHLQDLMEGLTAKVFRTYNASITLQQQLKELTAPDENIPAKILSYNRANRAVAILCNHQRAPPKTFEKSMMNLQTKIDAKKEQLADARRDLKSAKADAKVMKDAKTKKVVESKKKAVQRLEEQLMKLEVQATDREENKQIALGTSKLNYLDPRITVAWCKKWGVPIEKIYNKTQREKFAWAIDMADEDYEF
Protocol: (§3) Figure 3SI. Effect of compound (R)-5a on the relaxation of supercoiled pBR322 DNA by human recombinant topoisomerase I or II. Supercoiled plasmid pBR322 DNA (DNA) was incubated with topo I (topo I) or II in the absence (topo II) and in the presence of (R)-5a at indicated […]
(§4) Topoisomerase I and II relaxation assay
(§5) Supercoiled pBR322 plasmid DNA (20 ng, Fermentas Life Sciences) and 5U topoisomerase I (human topoisomerase I, TopoGEN) or alternatively, supercoiled pBR322 plasmid DNA (0.25 μg) and 1U topoisomerase II (human topoisomerase II alpha, Inspiralis) were incubated in the presence of test compound as indicated for 60 min at 37 °C in 20 µL reaction buffer.Reactions were stopped by adding 4 μL stop buffer (5% sodium dodecyl sulfate, 0.125% b romophenol blue, and 30% glycerol), 50 μg/mL proteinase K (Sigma) and incubating for a further 30 min at 37 °C.
(§6) The samples were separated by electrophoresis on a 1% agarose gel at room temperature. The gels were stained with ethidium bromide 1 μg/mL in TAE buffer (0.04 M Tris-acetate and 0.001 M EDTA), transilluminated by UV light, and fluorescence emission was visualized by a CCD camera coupled to a Bio-Rad Gel Doc XR apparatus.
as §2

[7] = target: T2, human topoisomerase II alpha (Homo sapiens, UniProt P11388); assay: Topoisomerase II relaxation assay; format: biochemical; settings: supercoiled pBR322; 60 min at 37 °C
T2 construct: purchased Inspiralis
Protocol: as §3, §4, §5, §6, §2

[8] = test system: CEM (human T-lymphocyte cells); settings: read-out: IC50 CEM; reference compound; cited from earlier work
[9] = test system: HeLa (human cervix carcinoma cells); settings: read-out: IC50 HeLa; reference compound; cited from earlier work
[10] = test system: HMEC-1 (human dermal microvascular endothelial cells); settings: read-out: IC50 HMEC-1; reference compound; cited from earlier work
HCT-116 = test system: HCT-116; set-up: method as in PMID 30253345; settings: cytotoxicity; cited from earlier work
[11] = test system: HT-29 (colorectal adenocarcinoma); settings: reference compound; cited from earlier work
[12] = test system: A2780 (ovarian carcinoma); settings: reference compound; cited from earlier work
[13] = test system: MSTO-211H (biphasic mesothelioma); settings: reference compound; cited from earlier work

T2 sequence (P11388 whole entry): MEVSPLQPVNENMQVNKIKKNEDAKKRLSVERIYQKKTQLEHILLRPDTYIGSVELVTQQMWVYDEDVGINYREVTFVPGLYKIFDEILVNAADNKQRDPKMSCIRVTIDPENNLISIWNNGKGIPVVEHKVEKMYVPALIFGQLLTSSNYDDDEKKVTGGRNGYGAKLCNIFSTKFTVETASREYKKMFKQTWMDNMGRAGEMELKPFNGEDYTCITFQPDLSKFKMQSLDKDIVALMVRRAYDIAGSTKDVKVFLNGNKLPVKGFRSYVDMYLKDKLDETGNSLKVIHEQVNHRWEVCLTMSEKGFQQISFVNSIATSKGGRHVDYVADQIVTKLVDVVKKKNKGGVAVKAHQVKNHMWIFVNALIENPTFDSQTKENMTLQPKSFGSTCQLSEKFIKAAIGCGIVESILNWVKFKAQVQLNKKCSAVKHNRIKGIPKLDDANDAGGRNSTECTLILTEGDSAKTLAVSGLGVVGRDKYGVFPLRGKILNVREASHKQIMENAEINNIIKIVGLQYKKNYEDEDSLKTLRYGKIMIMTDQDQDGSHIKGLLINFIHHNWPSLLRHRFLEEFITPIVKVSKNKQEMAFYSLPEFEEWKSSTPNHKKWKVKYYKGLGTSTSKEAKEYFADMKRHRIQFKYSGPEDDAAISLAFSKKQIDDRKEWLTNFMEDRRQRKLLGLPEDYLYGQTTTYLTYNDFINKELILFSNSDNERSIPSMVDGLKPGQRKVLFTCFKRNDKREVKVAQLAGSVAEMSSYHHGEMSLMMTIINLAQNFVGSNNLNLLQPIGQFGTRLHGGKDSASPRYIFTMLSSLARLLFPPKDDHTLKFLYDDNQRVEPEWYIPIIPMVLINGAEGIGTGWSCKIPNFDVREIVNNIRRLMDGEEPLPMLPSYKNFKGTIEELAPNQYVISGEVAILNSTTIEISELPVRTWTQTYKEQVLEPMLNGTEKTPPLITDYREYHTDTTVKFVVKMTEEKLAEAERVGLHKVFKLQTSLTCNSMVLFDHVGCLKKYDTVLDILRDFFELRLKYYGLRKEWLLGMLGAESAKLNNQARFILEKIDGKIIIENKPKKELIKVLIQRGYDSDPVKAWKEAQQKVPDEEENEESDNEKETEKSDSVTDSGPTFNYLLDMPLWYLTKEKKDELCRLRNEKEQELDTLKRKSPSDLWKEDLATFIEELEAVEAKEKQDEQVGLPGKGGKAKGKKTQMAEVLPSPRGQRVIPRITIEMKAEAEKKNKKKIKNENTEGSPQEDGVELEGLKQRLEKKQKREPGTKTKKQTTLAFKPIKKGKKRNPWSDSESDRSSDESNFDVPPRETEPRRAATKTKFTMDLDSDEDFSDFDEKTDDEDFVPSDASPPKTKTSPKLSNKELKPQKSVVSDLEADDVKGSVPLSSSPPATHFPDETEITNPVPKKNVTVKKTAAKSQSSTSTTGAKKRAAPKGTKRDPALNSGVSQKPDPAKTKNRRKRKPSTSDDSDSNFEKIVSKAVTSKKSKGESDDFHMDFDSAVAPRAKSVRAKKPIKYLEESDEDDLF

Structure (SMILES): Cc1ccc2c(n1)[C@H](/N=C/c1ncc[nH]1)CCC2 [(R)-5a, (E)-1-(1H-imidazol-2-yl)-N-(2-methyl-5,6,7,8-tetrahydroquinolin-8-yl)methanimine]
- IC50 [1]: > 20 µM
- inhibitory effect on the A2780 cell line with respect to its counterpart (S)-5a ([2]; R enantiomer versus S enantiomer): ~3 fold
- IC50 ([2]; pure enantiomers, 72 h, Trypan blue): 5.4 ± 1.3 µM
- IC50 ([3]; Homo sapiens, MSTO-211H, 72 h, Trypan blue): 15.1 ± 1.5 µM
- cytotoxic effect on MSTO-211H (in words) [3]: appreciable inhibition on cell growth
- cell percentage in G0/G1 (A2780 cells [4]; 2.5 μM): 61.2 ± 0.9%
- cell percentage in G2/M (A2780 cells [4]; 2.5 μM): 13.4 ± 0.7%
- cell percentage in S (A2780 cells [4]; 2.5 μM): 25.5 ± 0.6%
- cell percentage in G0/G1 (A2780 cells [4]; 5 μM): 63.7 ± 0.6%
- cell percentage in G2/M (A2780 cells [4]; 5 μM): 12.1 ± 0.6%
- cell percentage in S (A2780 cells [4]; 5 μM): 24.1 ± 1.1%
- cell percentage in G0/G1 (A2780 cells [4]; 10 μM): 70.3 ± 1.2%
- cell percentage in G2/M (A2780 cells [4]; 10 μM): 9.8 ± 0.6%
- cell percentage in S (A2780 cells [4]; 10 μM): 19.8 ± 0.9%
- cell percentage in G0/G1 (A2780 cells [4]; 20 μM): 71.6 ± 0.7%
- cell percentage in G2/M (A2780 cells [4]; 20 μM): 9.0 ± 0.8%
- cell percentage in S (A2780 cells [4]; 20 μM): 19.5 ± 0.4%
- intracellular amount of ROS with respect to untreated cells (control) (A2780 cells [5]): more than 4 fold
- modification in the electrophoretic migration of supercoiled plasmid DNA [6]: unable to induce any modification
- effect on the relaxation ability of topoisomerase I (human topoisomerase I): unable to induce
- effect on the relaxation ability of topoisomerase II [7]: unable to induce

Structure (SMILES): COc1ccc(/C=C\c2cc(OC)c(OC)c(OC)c2)cc1OP(=O)(O)O [CA-4P, Combretastatin A4P]
- IC50 [8]: 95 ± 6 nM
- IC50 [9]: 79 ± 3 nM
- IC50 [10]: 2.9 nM

Structure (SMILES): O=C(Sc1cccc2cccnc12)c1ccccc1Cl [QCBT7, Quinolin-chlorobenzothiazoate]
- IC50 (HCT-116): 600 nM

Structure (SMILES): COc1cc(NS(C)(=O)=O)ccc1Nc1c2ccccc2nc2ccccc12 [m-AMSA, Meta-amsacrine]
- IC50 [11]: 39 ± 4 nM
- IC50 [12]: 27 ± 5 nM
- IC50 [13]: 19 ± 1 nM
